In patent US8471005B2 (Cephalon, Inc., priority 2008, dated 2013):
Read-outs that look alike come from different tables or passages of the source.

Columns and labels:
ALK = target: T1, ALK (Homo sapiens, UniProt Q9UM73); assay: ALK Kinase Assay (ELISA/TRF, PLC-γ substrate); assay type: biochemical; conditions: read-out: ALK Potency
T1 construct: host or cells: baculovirus expression system
Method in brief: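 PLC-γ substrate coated at 10 μg/mL in TBS; reaction started with 30 ng/ml ALK, run 15 min at 37° C. Phosphoproduct detected by TRF with Eu-N1-labeled PT66 anti-phosphotyrosine antibody. IC50 from sigmoidal variable-slope fit of percent inhibition versus log concentration.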

JAK2 = target: T2, JAK2 (Homo sapiens, UniProt O60674); assay: Recombinant Human JAK2 Kinase Assay (TRF); assay type: biochemical; conditions: read-out: JAK2 Potency
T2 construct: host or cells: baculovirus expression system
Method in brief: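 Baculovirus-expressed JAK2 (15 ng/ml) phosphorylated a biotinylated 15-mer peptide captured on Neutravidin-coated plates, in 20 mM HEPES pH 7.2 with 0.2 μM ATP, 1 mM MnCl2, 0.1% BSA and 2.5% DMSO. Reaction ran 20 min at room temperature; phosphopeptide was detected by time-resolved fluorescence with Eu-N1-labelled PY100 antibody.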

[1] = ALK kinase inhibition, 1 μM ATP
[2] = JAK2 kinase inhibition, 0.2 μM ATP

T2 sequence (O60674 whole entry): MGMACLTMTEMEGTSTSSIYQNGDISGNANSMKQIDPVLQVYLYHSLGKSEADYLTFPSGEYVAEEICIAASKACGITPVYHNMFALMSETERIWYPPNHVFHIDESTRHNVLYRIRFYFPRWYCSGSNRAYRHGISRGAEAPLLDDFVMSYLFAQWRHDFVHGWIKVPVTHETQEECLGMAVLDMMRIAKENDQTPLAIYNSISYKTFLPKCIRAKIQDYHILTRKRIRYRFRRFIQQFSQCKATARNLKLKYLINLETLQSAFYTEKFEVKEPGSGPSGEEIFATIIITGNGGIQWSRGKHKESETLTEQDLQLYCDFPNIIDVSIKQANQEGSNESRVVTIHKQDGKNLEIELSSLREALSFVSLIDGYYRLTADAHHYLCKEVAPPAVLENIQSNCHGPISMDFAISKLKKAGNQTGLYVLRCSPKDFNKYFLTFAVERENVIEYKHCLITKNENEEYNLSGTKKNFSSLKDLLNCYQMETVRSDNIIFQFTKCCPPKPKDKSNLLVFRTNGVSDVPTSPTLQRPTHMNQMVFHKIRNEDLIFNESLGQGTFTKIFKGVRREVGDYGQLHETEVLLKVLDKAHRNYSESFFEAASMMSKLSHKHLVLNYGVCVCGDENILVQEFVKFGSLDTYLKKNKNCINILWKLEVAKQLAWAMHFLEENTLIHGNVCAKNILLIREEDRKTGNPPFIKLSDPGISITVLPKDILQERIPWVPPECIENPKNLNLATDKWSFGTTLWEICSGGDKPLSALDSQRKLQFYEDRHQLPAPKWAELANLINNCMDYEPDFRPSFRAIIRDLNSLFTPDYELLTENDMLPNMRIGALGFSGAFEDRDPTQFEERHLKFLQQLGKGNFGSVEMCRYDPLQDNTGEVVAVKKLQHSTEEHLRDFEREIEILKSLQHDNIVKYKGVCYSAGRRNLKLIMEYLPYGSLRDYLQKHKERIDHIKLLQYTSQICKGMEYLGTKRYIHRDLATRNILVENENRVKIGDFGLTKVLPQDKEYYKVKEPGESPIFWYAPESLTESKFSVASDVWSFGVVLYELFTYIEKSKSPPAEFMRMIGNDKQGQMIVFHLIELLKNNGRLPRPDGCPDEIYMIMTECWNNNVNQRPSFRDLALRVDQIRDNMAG
T1 sequence (Q9UM73 19-1620): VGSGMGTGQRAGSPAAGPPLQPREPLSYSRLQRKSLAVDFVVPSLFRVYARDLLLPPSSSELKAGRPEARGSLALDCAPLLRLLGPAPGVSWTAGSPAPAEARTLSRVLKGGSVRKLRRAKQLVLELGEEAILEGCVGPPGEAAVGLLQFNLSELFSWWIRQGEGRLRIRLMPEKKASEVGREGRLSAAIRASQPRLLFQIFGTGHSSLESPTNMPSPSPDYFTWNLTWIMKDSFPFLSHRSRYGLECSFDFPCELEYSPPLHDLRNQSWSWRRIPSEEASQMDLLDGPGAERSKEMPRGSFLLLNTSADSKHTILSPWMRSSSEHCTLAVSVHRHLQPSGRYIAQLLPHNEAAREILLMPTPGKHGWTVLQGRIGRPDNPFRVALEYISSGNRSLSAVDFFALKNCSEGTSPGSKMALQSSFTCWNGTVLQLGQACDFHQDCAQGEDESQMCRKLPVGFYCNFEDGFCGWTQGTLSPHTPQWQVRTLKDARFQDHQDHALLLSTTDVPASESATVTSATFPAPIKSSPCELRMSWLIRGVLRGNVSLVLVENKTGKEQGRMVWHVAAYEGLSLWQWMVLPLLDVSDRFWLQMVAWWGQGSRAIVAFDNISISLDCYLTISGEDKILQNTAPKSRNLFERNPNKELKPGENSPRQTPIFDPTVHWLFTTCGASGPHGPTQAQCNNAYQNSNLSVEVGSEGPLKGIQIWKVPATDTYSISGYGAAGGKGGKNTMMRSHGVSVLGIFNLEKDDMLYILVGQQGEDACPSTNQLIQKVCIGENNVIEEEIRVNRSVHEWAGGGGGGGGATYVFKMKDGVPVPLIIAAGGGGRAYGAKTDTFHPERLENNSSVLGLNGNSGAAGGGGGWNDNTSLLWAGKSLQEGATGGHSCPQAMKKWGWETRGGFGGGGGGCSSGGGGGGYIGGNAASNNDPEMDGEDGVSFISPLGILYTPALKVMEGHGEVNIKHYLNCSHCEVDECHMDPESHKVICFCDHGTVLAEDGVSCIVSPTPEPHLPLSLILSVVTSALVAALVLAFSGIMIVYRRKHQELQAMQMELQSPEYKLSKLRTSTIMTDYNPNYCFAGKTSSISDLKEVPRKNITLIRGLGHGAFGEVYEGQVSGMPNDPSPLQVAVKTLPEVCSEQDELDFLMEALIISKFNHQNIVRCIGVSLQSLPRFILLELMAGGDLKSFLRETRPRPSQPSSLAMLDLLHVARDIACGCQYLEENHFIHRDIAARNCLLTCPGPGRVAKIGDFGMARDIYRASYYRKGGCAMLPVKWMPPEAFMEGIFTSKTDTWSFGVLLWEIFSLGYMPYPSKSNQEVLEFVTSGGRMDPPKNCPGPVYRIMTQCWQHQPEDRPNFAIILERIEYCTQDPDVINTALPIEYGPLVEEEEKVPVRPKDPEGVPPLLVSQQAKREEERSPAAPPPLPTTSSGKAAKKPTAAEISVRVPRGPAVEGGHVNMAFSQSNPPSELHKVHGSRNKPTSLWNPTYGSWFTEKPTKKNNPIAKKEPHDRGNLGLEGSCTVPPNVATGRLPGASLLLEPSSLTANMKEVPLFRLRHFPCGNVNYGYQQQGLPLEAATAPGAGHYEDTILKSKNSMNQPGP

SMILES: CN1CCN(c2cccc(Nc3ncc4ccc(-c5cccc(N6CCCS6(=O)=O)c5)n4n3)c2)CC1 [Example 1509, 7-[3-(1,1-Dioxido-1,2-thiazolidin-2-yl)phenyl]-N-[3-(4-methylpiperazin-1-yl)phenyl]pyrrolo[2,1-f][1,2,4]triazin-2-amine]
- IC50 (ALK; ALK Kinase Inhibition): 100 to 1000 nM
- IC50 (JAK2; JAK2 Kinase Inhibition): < 100 nM

SMILES: COc1ccccc1-c1ccc2cnc(Nc3ccc4c(c3)CN(CC(N)=O)C4)nn12 [Example 925, 2-{5-[7-(2-Methoxy-phenyl)-pyrrolo[2,1-f][1,2,4]triazin-2-ylamino]-1,3-dihydro-isoindol-2-yl}-acetamide]
- IC50 (ALK; [1]): 100 to 1000 nM
- IC50 (JAK2; [2]): < 100 nM

SMILES: Cc1cc(N2CCN(C)CC2)ccc1Nc1ncc2ccc(-c3cccc(Cl)c3)n2n1 [Example 68, [7-(3-Chloro-phenyl)-pyrrolo[2,1-f][1,2,4]triazin-2-yl]-[2-methyl-4-(4-methyl-piperazin-1-yl)-phenyl]-amine]
- IC50 (ALK; ALK Kinase Inhibition): < 100 nM
- IC50 (JAK2; JAK2 Kinase Inhibition): < 100 nM

SMILES: COc1ccccc1-c1ccc2cnc(Nc3ccc4c(cnn4CCN4CCOCC4)c3)nn12 [Example 1346, [7-(2-Methoxy-phenyl)-pyrrolo[2,1-f][1,2,4]triazin-2-yl]-[1-(2-morpholin-4-yl-ethyl)-1H-indazol-5-yl]-amine]
- IC50 (ALK; [1]): 100 to 1000 nM
- IC50 (JAK2; [2]): < 100 nM

SMILES: CN(c1ccccc1-c1ccc2cnc(Nc3ccc4c(c3)CCC(N3CCOCC3)CC4)nn12)S(C)(=O)=O (centres unmarked) [Example 615, N-Methyl-N-{2-[2-(7-morpholin-4-yl-6,7,8,9-tetrahydro-5H-benzocyclohepten-2-ylamino)-pyrrolo[2,1-f][1,2,4]triazin-7-yl]-phenyl}-methanesulfonamide]
- IC50 (ALK; [1]): < 100 nM
- IC50 (JAK2; [2]): < 100 nM

SMILES: CC(C)(C)NS(=O)(=O)c1cccc(-c2ccc3cnc(Nc4ccc(N5CCC(N6CCNC(=O)C6)CC5)cc4)nn23)c1 [Example 562, N-tert-Butyl-3-(2-{4-[4-(3-oxo-piperazin-1-yl)-piperidin-1-yl]-phenylamino}-pyrrolo[2,1-f][1,2,4]triazin-7-yl)-benzenesulfonamide]
- IC50 (ALK; [1]): 100 to 1000 nM
- IC50 (JAK2; [2]): < 100 nM

SMILES: CN1CCN(C(=O)C2CCN(c3ccc(Nc4ncc5ccc(-c6ccc(Cl)cc6O)n5n4)cc3)CC2)CC1 [Example 485, (1-{4-[7-(4-Chloro-2-hydroxy-phenyl)-pyrrolo[2,1-f][1,2,4]triazin-2-ylamino]-phenyl}-piperidin-4-yl)-(4-methyl-piperazin-1-yl)-methanone]
- IC50 (ALK; [1]): 100 to 1000 nM
- IC50 (JAK2; [2]): < 100 nM

SMILES: COc1cc(CN2CCOCC2)ccc1Nc1ncc2ccc(-c3ccccc3N(C)S(C)(=O)=O)n2n1 [Example 1221, N-{2-[2-(2-Methoxy-4-morpholin-4-ylmethyl-phenylamino)-pyrrolo[2,1-f][1,2,4]triazin-7-yl]-phenyl}-N-methyl-methanesulfonamide]
- IC50 (ALK; [1]): < 100 nM
- IC50 (JAK2; [2]): 1000 to 10000 nM

SMILES: CC(=O)Nc1cc(Nc2ncc3ccc(-c4cccc(S(=O)(=O)NC(C)(C)C)c4)n3n2)ccc1C(C)(C)C [Example 1387, N-{2-tert-Butyl-5-[7-(3-tert-butylsulfamoyl-phenyl)-pyrrolo[2,1-f][1,2,4]triazin-2-ylamino]-phenyl}-acetamide]
- IC50 (ALK; ALK Kinase Inhibition): 100 to 1000 nM
- IC50 (JAK2; JAK2 Kinase Inhibition): < 100 nM

SMILES: CN1CCN(c2ccc(Nc3ncc4c(Br)cc(-c5ccccc5)n4n3)cc2)CC1 [Example 100, (5-Bromo-7-phenyl-pyrrolo[2,1-f][1,2,4]triazin-2-yl)-[4-(4-methyl-piperazin-1-yl)-phenyl]-amine]
- IC50 (ALK; ALK Kinase Inhibition): 100 to 1000 nM
- IC50 (JAK2; JAK2 Kinase Inhibition): < 100 nM

SMILES: COc1ccccc1-c1ccc2cnc(Nc3ccc(C(=O)N4CCN(C)CC4)cc3)nn12 [Example 318, {4-[7-(2-Methoxy-phenyl)-pyrrolo[2,1-f][1,2,4]triazin-2-ylamino]-phenyl}-(4-methyl-piperazin-1-yl)-methanone]
- IC50 (ALK; ALK Kinase Inhibition): 100 to 1000 nM
- IC50 (JAK2; JAK2 Kinase Inhibition): < 100 nM

SMILES: CN(c1ccccc1-c1ccc2cnc(Nc3ccc(N4CCOCC4)cn3)nn12)S(C)(=O)=O [Example 1176, N-Methyl-N-{2-[2-(5-morpholin-4-yl-pyridin-2-ylamino)-pyrrolo[2,1-f][1,2,4]triazin-7-yl]-phenyl}-methanesulfonamide]
- IC50 (ALK; [1]): 1000 to 10000 nM
- IC50 (JAK2; [2]): < 100 nM

SMILES: COc1ccccc1-c1ccc2cnc(Nc3ccc4c(c3)N(C(C)=O)CCCC4)nn12 [Example 639, 1-{8-[7-(2-Methoxyphenyl)-pyrrolo[2,1-f][1,2,4]triazin-2-ylamino]-2,3,4,5-tetrahydrobenzo[b]azepin-1-yl}ethanone]
- IC50 (ALK; [1]): 1000 to 10000 nM
- IC50 (JAK2; [2]): < 100 nM

SMILES: COc1ccccc1-c1ccc2cnc(Nc3ccc(C4CCN(C)CC4)c(OC)c3)nn12 [Example 908, [3-Methoxy-4-(1-methyl-piperidin-4-yl)-phenyl]-[7-(2-methoxy-phenyl)-pyrrolo[2,1-f][1,2,4]triazin-2-yl]-amine]
- IC50 (ALK; [1]): < 100 nM
- IC50 (JAK2; [2]): < 100 nM

SMILES: COc1cc(C2CCN(C[C@H](Oc3ncc4ccc(-c5ccccc5OC)n4n3)C(F)(F)F)CC2)ccc1N [Example 786, 2-Methoxy-4-(1-{(S)-3,3,3-trifluoro-2-[7-(2-methoxy-phenyl)-pyrrolo[2,1-f][1,2,4]triazin-2-yloxy]-propyl}-piperidin-4-yl)-phenylamine]
- IC50 (ALK; [1]): > 10000 nM
- IC50 (JAK2; [2]): > 10000 nM

SMILES: CS(=O)(=O)c1ccc(-c2ccc3cnc(Nc4ccc5nc[nH]c5c4)nn23)cc1 [Example 1304, (3H-Benzimidazol-5-yl)-[7-(4-methanesulfonyl-phenyl)-pyrrolo[2,1-f][1,2,4]triazin-2-yl]-amine]
- IC50 (ALK; [1]): 100 to 1000 nM
- IC50 (JAK2; [2]): < 100 nM

SMILES: CCN1C(=O)CCC(C)(C)c2ccc(Nc3ncc4ccc(-c5cnn(C)c5)n4n3)cc21 [Example 1379, 1-Ethyl-5,5-dimethyl-8-[7-(1-methyl-1H-pyrazol-4-yl)-pyrrolo[2,1-f][1,2,4]triazin-2-ylamino]-1,3,4,5-tetrahydro-benzo[b]azepin-2-one]
- IC50 (ALK; ALK Kinase Inhibition): 100 to 1000 nM
- IC50 (JAK2; JAK2 Kinase Inhibition): < 100 nM

SMILES: O=C(NCCN1CCCC1)c1ccc(-c2ccc3cnc(Nc4ccc(N5CCOCC5)cc4)nn23)cc1 [Example 53, 4-[2-(4-Morpholin-4-yl-phenylamino)-pyrrolo[2,1-f][1,2,4]triazin-7-yl]-N-(2-pyrrolidin-1-yl-ethyl)-benzamide]
- IC50 (ALK; ALK Kinase Inhibition): 100 to 1000 nM
- IC50 (JAK2; JAK2 Kinase Inhibition): < 100 nM

SMILES: COc1ccc(-c2ccc3cnc(Nc4cccc(C5CN(C)CCN5C)c4)nn23)cn1 (centres unmarked) [Example 1519, [3-(1,4-Dimethyl-piperazin-2-yl)-phenyl]-[7-(6-methoxy-pyridin-3-yl)-pyrrolo[2,1-f][1,2,4]triazin-2-yl]-amine]
- IC50 (ALK; ALK Kinase Inhibition): 1000 to 10000 nM
- IC50 (JAK2; JAK2 Kinase Inhibition): < 100 nM

SMILES: O=C(c1ccccc1)c1ccc2cnc(Nc3ccc(N4CCOCC4)cc3)nn12 [Example 72, [2-(4-Morpholin-4-yl-phenylamino)-pyrrolo[2,1-f][1,2,4]triazin-7-yl]-phenyl-methanone]
- IC50 (ALK; ALK Kinase Inhibition): 1000 to 10000 nM
- IC50 (JAK2; JAK2 Kinase Inhibition): < 100 nM

SMILES: CN1CCN(c2ccc(Nc3ncc4ccc(NCc5cccnc5)n4n3)cc2)CC1 [Example 1164, N(2)-[4-(4-Methyl-piperazin-1-yl)-phenyl]-N(7)-pyridin-3-ylmethyl-pyrrolo[2,1-f][1,2,4]triazine-2,7-diamine]
- IC50 (ALK; [1]): 100 to 1000 nM
- IC50 (JAK2; [2]): < 100 nM

SMILES: COc1ccc(-c2ccc3cnc(Nc4ccc(C5=CCN(CC(N)=O)CC5)c(C(F)(F)F)c4)nn23)cn1 [Example 953, 2-(4-{4-[7-(6-Methoxy-pyridin-3-yl)-pyrrolo[2,1-f][1,2,4]triazin-2-ylamino]-2-trifluoromethyl-phenyl}-3,6-dihydro-2H-pyridin-1-yl)-acetamide]
- IC50 (ALK; [1]): 1000 to 10000 nM
- IC50 (JAK2; [2]): < 100 nM
